Patent publication US10533010B2, “Substituted indole Mcl-1 inhibitors” (Vanderbilt University, priority 2014, dated 2020)
Where two headings read alike, the source gives them in different places.

Molecular target: recombinant Mcl-1 (residues 172-327) (Homo sapiens (Human), UniProt Q07820)
Experiment: Fluorescence polarization anisotropy competition assay (FITC-Bak or FITC-Bim BH3 peptide) with Mcl-1
Type: binding
Conditions: Table 2, FITC-Bak or FITC-Bim peptide competition, Ki converted from IC50, read-out: Ki for Inhibition of Mcl-1

Chain of recombinant Mcl-1 (residues 172-327) (Q07820 172-327): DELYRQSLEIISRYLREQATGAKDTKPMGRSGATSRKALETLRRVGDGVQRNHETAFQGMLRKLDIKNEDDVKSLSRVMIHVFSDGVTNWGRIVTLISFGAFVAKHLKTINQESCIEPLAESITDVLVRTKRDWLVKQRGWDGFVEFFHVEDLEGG

Structure (SMILES)	Ki (Ki bins given in nM) [nM]	Ki (Ki bins given in μM) [nM]
Cc1cc(OCCCc2c(C(=O)NC3CCN(C(=O)C(=O)O)CC3)[nH]c3c(-c4c(C)nn(C)c4C)c(Cl)ccc23)cc(C)c1Cl [I-321, 2-(4-(6-chloro-3-(3-(4-chloro-3,5-dimethylphenoxy)propyl)-7-(1,3,5-trimethyl-1H-pyrazol-4-yl)-1H-indole-2-carboxamido)piperidin-1-yl)-2-oxoacetic acid]	< 50	–
Cc1cc(OCCCc2c3n(c4c(-c5c(C)nn(C)c5C)cc(Cl)cc24)CCCN(c2cccc(C(=O)O)c2)C3=O)cc(C)c1Cl [I-246, 3-(9-chloro-11-(3-(4-chloro-3,5-dimethylphenoxy)propyl)-1-oxo-7-(1,3,5-trimethyl-1H-pyrazol-4-yl)-4,5-dihydro-1H-[1,4]diazepino[1,2-a]indol-2(3H)-yl)benzoic acid]	101 to 299	–
Cc1cc(OCCCc2c(C(=O)N[C@@H]3CCN(C(=O)C(=O)O)C3)[nH]c3c(-c4c(C)nn(C)c4C)c(Cl)ccc23)cc(C)c1Cl [I-326, (R)-2-(3-(6-chloro-3-(3-(4-chloro-3,5-dimethylphenoxy)propyl)-7-(1,3,5-trimethyl-1H-pyrazol-4-yl)-1H-indole-2-carboxamido)pyrrolidin-1-yl)-2-oxoacetic acid]	< 50	–
Cc1cc(OCCCc2c3n(c4c(-c5c(C)nn(C)c5C)c(Cl)ccc24)CCCN(c2cc(C(=O)O)c4c(ccn4C)c2)C3=O)cc(C)c1Cl [I-250, 5-(8-chloro-11-(3-(4-chloro-3,5-dimethylphenoxy)propyl)-1-oxo-7-(1,3,5-trimethyl-1H-pyrazol-4-yl)-4,5-dihydro-1H-[1,4]diazepino[1,2-a]indol-2(3H)-yl)-1-methyl-1H-indole-7-carboxylic acid]	< 50	–
Cc1cc(OCCCc2c3n(c4c(-c5c(C)nn(C)c5C)c(Cl)ccc24)[C@@H](C)CN(Cc2ccc(C(=O)O)cc2)C3=O)cc(C)c1Cl [I-150, (S)-4-((7-chloro-10-(3-(4-chloro-3,5-dimethylphenoxy)propyl)-4-methyl-1-oxo-6-(1,3,5-trimethyl-1H-pyrazol-4-yl)-3,4-dihydropyrazino[1,2-a]indol-2(1H)-yl)methyl)benzoic acid]	< 50	–
Cc1cc(OCCCc2c(C(=O)NCc3cccc(C(=O)NCc4ccccc4)c3)[nH]c3c(-c4c(C)n[nH]c4C)cccc23)cc(C)c1Cl [I-64, N-(3-(benzylcarbamoyl)benzyl)-3-(3-(4-chloro-3,5-dimethylphenoxy)propyl)-7-(3,5-dimethyl-1H-pyrazol-4-yl)-1H-indole-2-carboxamide]	–	10000 to 50000
Cc1cc(OCCCc2c3n(c4c(-c5c(C)nn(C)c5C)c(Cl)ccc24)CCCN(Cc2ccc(C(=O)NS(=O)(=O)c4ccc(OCc5ccccc5)cc4)cc2)C3=O)cc(C)c1Cl [I-309, N-((4-(benzyloxy)phenyl)sulfonyl)-4-((8-chloro-11-(3-(4-chloro-3,5-dimethylphenoxy)propyl)-1-oxo-7-(1,3,5-trimethyl-1H-pyrazol-4-yl)-4,5-dihydro-1H-[1,4]diazepino[1,2-a]indol-2(3H)-yl)methyl)benzamide]	< 50	–
Cc1cc(OCCCc2c(C(=O)N[C@H]3CCN(C(=O)C(=O)O)C3)[nH]c3c(-c4c(C)nn(C)c4C)c(Cl)ccc23)cc(C)c1Cl [I-325, (S)-2-(3-(6-chloro-3-(3-(4-chloro-3,5-dimethylphenoxy)propyl)-7-(1,3,5-trimethyl-1H-pyrazol-4-yl)-1H-indole-2-carboxamido)pyrrolidin-1-yl)-2-oxoacetic acid]	< 50	–
Cc1cc(OCCCc2c3n(c4c(-c5c(C)nn(C)c5C)c(Cl)ccc24)[C@@H](C)CN(c2ccc(C(=O)O)cc2)C3=O)cc(C)c1Cl [I-166, (S)-4-(7-chloro-10-(3-(4-chloro-3,5-dimethylphenoxy)propyl)-4-methyl-1-oxo-6-(1,3,5-trimethyl-1H-pyrazol-4-yl)-3,4-dihydropyrazino[1,2-a]indol-2(1H)-yl)benzoic acid]	< 50	–
Cc1cc(OCCCc2c(C(=O)NCC(=O)N[C@@H](CC(C)C)C(=O)O)[nH]c3c(-c4c(C)nn(C)c4C)cccc23)cc(C)c1Cl [I-292, (3-(3-(4-chloro-3,5-dimethylphenoxy)propyl)-7-(1,3,5-trimethyl-1H-pyrazol-4-yl)-1H-indole-2-carbonyl)glycyl-L-leucine]	< 50	–
Cc1cc(OCCCc2c3n(c4c(-c5c(C)nn(C)c5C)c(Cl)ccc24)CC(C)CN(Cc2ccc(C(=O)O)cn2)C3=O)cc(C)c1Cl (stereo not drawn) [I-134, 6-((8-chloro-11-(3-(4-chloro-3,5-dimethylphenoxy)propyl)-4-methyl-1-oxo-7-(1,3,5-trimethyl-1H-pyrazol-4-yl)-4,5-dihydro-1H-[1,4]diazepino[1,2-a]indol-2(3H)-yl)methyl)nicotinic acid]	< 50	–
Cc1cc(OCCCc2c(C(=O)Nc3cccc(C(=O)O)c3)[nH]c3c(-c4cccnc4C)cccc23)cc(C)c1Cl [I-36, 3-(3-(3-(4-chloro-3,5-dimethylphenoxy)propyl)-7-(2-methylpyridin-3-yl)-1H-indole-2-carboxamido)benzoic acid]	< 50	–
Cc1cc(OCCCc2c(C(=O)Nc3ccc(C(=O)NS(=O)(=O)c4ccc([N+](=O)[O-])cc4)cc3)[nH]c3c(-c4cccnc4C)cccc23)cc(C)c1Cl [I-69, 3-(3-(4-chloro-3,5-dimethylphenoxy)propyl)-7-(2-methylpyridin-3-yl)-N-(4-(((4-nitrophenyl)sulfonyl)carbamoyl)phenyl)-1H-indole-2-carboxamide]	101 to 299	–
Cc1cc(OCCCc2c(C(=O)NCc3cccc(C(=O)O)c3)[nH]c3c(-c4c(C)n[nH]c4C)cccc23)cc(C)c1Cl [I-25a, 3-((3-(3-(4-chloro-3,5-dimethylphenoxy)propyl)-7-(3,5-dimethyl-1H-pyrazol-4-yl)-1H-indole-2-carboxamido)methyl)benzoic acid]	< 50	–
Cc1cc(OCCCc2c3n(c4c(-c5c(C)nn(C)c5C)c(Cl)ccc24)CCCN(Cc2cc(C(=O)O)cc(N(C(=O)CC(C)C)C(=O)CC(C)C)c2)C3=O)cc(C)c1Cl [I-329, 3-((8-chloro-11-(3-(4-chloro-3,5-dimethylphenoxy)propyl)-1-oxo-7-(1,3,5-trimethyl-1H-pyrazol-4-yl)-4,5-dihydro-1H-[1,4]diazepino[1,2-a]indol-2(3H)-yl)methyl)-5-(3-methyl-N-(3-methylbutanoyl)butanamido)benzoic acid]	< 50	–
Cc1cc(OCCCc2c(C(=O)NCc3cc(Br)cc(C(=O)O)c3)[nH]c3c(-c4c(C)nn(C)c4C)c(Cl)ccc23)cc(C)c1Cl [I-370, 3-bromo-5-((6-chloro-3-(3-(4-chloro-3,5-dimethylphenoxy)propyl)-7-(1,3,5-trimethyl-1H-pyrazol-4-yl)-1H-indole-2-carboxamido)methyl)benzoic acid]	< 50	–
Cc1cc(OCCCc2c(C(=O)NCc3ccc(C(=O)NCc4ccccc4C(F)(F)F)o3)[nH]c3ccccc23)cc(C)c1Cl [I-58, 3-(3-(4-chloro-3,5-dimethylphenoxy)propyl)-N-((5-((2-(trifluoromethyl)benzyl)carbamoyl)furan-2-yl)methyl)-1H-indole-2-carboxamide]	101 to 299	–
Cc1nn(C)c(C)c1-c1cccc2c(CCCOc3cccc4ccccc34)c(C(=O)N(C)c3cccc(C(=O)O)c3)[nH]c12 [I-195, 3-(N-methyl-3-(3-(naphthalen-1-yloxy)propyl)-7-(1,3,5-trimethyl-1H-pyrazol-4-yl)-1H-indole-2-carboxamido)benzoic acid]	< 50	–
